In the assay the target is T1, MASTL kinase (Microtubule-associated serine/threonine kinase-like; Great wall kinase) (Homo sapiens, UniProt Q96GX5).
T1 sequence (Q96GX5 1-879): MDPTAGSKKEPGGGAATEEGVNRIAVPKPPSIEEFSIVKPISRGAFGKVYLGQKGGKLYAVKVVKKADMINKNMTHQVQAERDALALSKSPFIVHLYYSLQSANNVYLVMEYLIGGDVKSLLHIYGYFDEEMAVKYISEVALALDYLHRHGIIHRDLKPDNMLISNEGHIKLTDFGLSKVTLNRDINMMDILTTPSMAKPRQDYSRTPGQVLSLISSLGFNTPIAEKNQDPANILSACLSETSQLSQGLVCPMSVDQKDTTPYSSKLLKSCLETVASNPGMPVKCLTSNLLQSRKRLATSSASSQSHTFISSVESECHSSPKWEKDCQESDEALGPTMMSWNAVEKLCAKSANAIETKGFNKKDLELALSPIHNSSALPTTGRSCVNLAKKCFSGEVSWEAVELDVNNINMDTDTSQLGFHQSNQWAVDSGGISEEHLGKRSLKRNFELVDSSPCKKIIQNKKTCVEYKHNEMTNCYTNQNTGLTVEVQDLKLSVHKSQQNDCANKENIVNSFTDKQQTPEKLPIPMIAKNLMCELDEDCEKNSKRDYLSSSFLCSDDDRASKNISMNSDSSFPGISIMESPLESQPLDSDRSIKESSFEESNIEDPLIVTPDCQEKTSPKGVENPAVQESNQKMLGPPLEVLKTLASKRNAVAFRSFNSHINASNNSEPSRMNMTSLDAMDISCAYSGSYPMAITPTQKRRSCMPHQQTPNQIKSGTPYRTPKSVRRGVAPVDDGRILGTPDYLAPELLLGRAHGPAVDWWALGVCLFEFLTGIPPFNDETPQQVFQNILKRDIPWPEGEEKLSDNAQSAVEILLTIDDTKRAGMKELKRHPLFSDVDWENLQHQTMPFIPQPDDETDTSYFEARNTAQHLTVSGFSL
Put plainly: ADP-Glo luminescent in vitro kinase assay. The assay is classed as biochemical.

Data on two compounds can be found in article PMC9124600 (Medical Oncology (Northwood, London, England), 2022).

Structures are written as SMILES.

The term EC50 denotes the concentration giving half of the maximal effect. Take `Cn1cc(C2=C(c3cn(C4CCN(Cc5ccccn5)CC4)c4ccccc34)C(=O)NC2=O)c2ccccc21` [Enzastaurin]: it took 17.1 µM to reach a half-maximal effect (EC50).

As for `CC(=O)c1c(C)c2cnc(Nc3ccc(N4CCNCC4)cn3)nc2n(C2CCCC2)c1=O` [Palbociclib], a half-maximal effect (EC50) was put at 10.5 µM.
